Values of other authors in patent publication US20220015356A1, “AQUEOUS SOLUTIONS OF POORLY SOLUBLE PESTICIDES USING POLYALKYOXYLATED ALCOHOLS” (priority 2018, published 2022).

Conditions: at 20° C.

COC(=O)N(OC)c1ccccc1COc1ccn(-c2ccc(Cl)cc2)n1 [pyraclostrobin]
water solubility: < 1.9 mg/L
